# Measurements published in patent US20260224675A1, “METHOD OF INHIBITING DEGRADING PROTEASE ACTIVITY IN THE SKIN” (The Regents of the University of California, priority 2023, published 2026).
# How the values were obtained:
# Format in all cases: in vivo
# [1] = tested on: collagen; experiment: Rat skin tissue collagen fragmentation, collagen hybridizing peptide (B-CHP) labeling; details: old rats, two weeks
# Excerpt: (§1) Male Wistar rats (Harlan Sprague Dawley Inc., Indianapolis, IN) at maturity (4 months, 300 to 350 gm) and old age (24 months, 375 to 450 gm) were included in the study. The animals were maintained on standard laboratory chow (8604 Teklad rodent diet; Harlan Laboratories, Indianapolis, IN) without restriction and water ad libitum and maintained in separated room without pathogen-free conditions. […] A subgroup of old animals was given over two weeks a pancreatic serine protease (trypsin) inhibitor (tranexamic acid, 14 days) in drinking water (137 mM, exchanged daily) which at a minimum fluid consumption of 40 ml/day amounts to a minimum dose of 0.39 gm/kg/day for 350 gm body weight. […]
# Tissue sections were stained with B-CHP (stock solution, 150 mM; final applied solution 7.5. mM). […] The B-CHP label intensity on the sections was recorded by digital microscopy.
# (§2) Images of the immunolabel density were recorded from low power overviews of the tissue (10× objective, numerical aperture 0.25) under standard light conditions. Images were digitally analyzed to minimize operator error (NIH Image, 1.61, public domain software, spatial resolution of 640×480 pixel).
# The intensity of the immune substrate label was measured after color extraction in form of light intensity (1 corresponding to white, 256 corresponding to black). […]
# [2] = tested on: pancreatic trypsin; experiment: Pancreatic trypsin accumulation in rat small intestine, immunohistochemistry; details: old rats, oral, two weeks; increase in old vs young rats
# Excerpt: (§3) Male Wistar rats (Harlan Sprague Dawley Inc., Indianapolis, IN) at maturity (4 months, 300 to 350 gm) and old age (24 months, 375 to 450 gm) were included in the study. The animals were maintained on standard laboratory chow (8604 Teklad rodent diet; Harlan Laboratories, Indianapolis, IN) without restriction and water ad libitum and maintained in separated room without pathogen-free conditions. […] A subgroup of old animals was given over two weeks a pancreatic serine protease (trypsin) inhibitor (tranexamic acid, 14 days) in drinking water (137 mM, exchanged daily) which at a minimum fluid consumption of 40 ml/day amounts to a minimum dose of 0.39 gm/kg/day for 350 gm body weight.
# (§4) Small intestine: Full thickness tissue blocks of the wall of proximal jejunum (3 by 5 mm) were fixed from all sides in 10% formaldehyde. Pancreatic trypsin and amylase were detected with primary (MoAb (D-1) and MoAb (G-10), respectively), and secondary antibodies labeled with DAB (Peroxidase Substrate Kit, ab64238, ABCAM).
# (§5) Images of the immunolabel density were recorded from low power overviews of the tissue (10× objective, numerical aperture 0.25) under standard light conditions. Images were digitally analyzed to minimize operator error (NIH Image, 1.61, public domain software, spatial resolution of 640×480 pixel). […]
# [3] = tested on: pancreatic trypsin; experiment: Pancreatic trypsin accumulation in rat skin tissue, immunohistochemistry; details: old rats, two weeks
# Excerpt: as §1
# To determine on the tissue sections the immunolabel density and distribution of pancreatic serine proteases, pancreatic trypsin MoAb (D-1): sc-137077(Santa Cruz) primary antibody was used, followed by secondary antibodies (MP-7601 for anti-rabbit IgG; MP-7602 for anti-mouse IgG; ImmPRESS Excel staining kit peroxidase). […] No counterstain was applied to facilitate quantitative label intensity measurements and since cellular and vascular structures are readily identified. […] All procedures were carried out under standardized conditions to permit quantitative comparison of label densities. […]
# [4] = tested on: mucin coat in the small intestine; experiment: Mucin coat in rat small intestine, alcian blue labeling; details: old rats (104 weeks), oral in drinking water, two weeks, vs old non-treated
# Excerpt: as §1, §2
# The intensity of the immune substrate label was measured after color extraction in form of light intensity (1 corresponding to white, 256 corresponding to black). The mean label density per group (with 3 animals per group) was determined from the average label density per animal (determined from 5 tissue sections/animal, 30 images/section).
# [5] = tested on: amylase; experiment: Pancreatic amylase accumulation in rat small intestine, immunohistochemistry; details: old rats, oral, two weeks; increase in old vs young rats
# Excerpt: as §3, §4, §5
structure (smiles),measurement,setting,value
NC[C@H]1CC[C@H](C(=O)O)CC1 [tranexamic acid],collagen fragmentation in skin tissue (CHP),[1],prevents collagen fragmentation
same,pancreatic trypsin label density in the small intestine,[2],attenuated
same,pancreatic trypsin accumulation in skin tissue,[3],prevents trypsin accumulation
same,mucin coat in the small intestine (alcian blue label),[4],restoration of the mucin coat
same,amylase label density in the small intestine,[5],attenuated
